Data from ChEMBL document CHEMBL3091380, “Dibenzoyl and isoflavonoid glycosides from Sophora flavescens: inhibition of the cytotoxic effect of D-galactosamine on human hepatocyte HL-7702” (2013).

Tests used:
[1] = Hepatoprotective activity in human HL-7702 cells assessed as inhibition of D-galactosamine-induced toxicity at 1x10'-5 M by MTT assay relative to control; format: functional; details: L02
L02 = assay: Hepatoprotective activity against D-galactosamine-induced toxicity in human HL-7702 cells assessed as survival rate at 1x10'-5 M by MTT assay relative to normal cell; format: functional; details: read-out: Survival

SMILES | inhibition at 10 µM [1] [%] | viability at 10 µM (L02) [%]
COC(=O)c1cc(OC)c2c(c1-c1c(CO)cc(OC)c3c1OCO3)OCO2 [BICYCLOL] | 29.4 | 62.5
COc1ccc(C(=O)C(=O)c2ccc(O[C@@H]3O[C@H](CO[C@@H]4OC[C@](O)(CO)[C@H]4O)[C@@H](O)[C@H](O)[C@H]3O)cc2O)cc1O | 52.4 | 74.7
COc1cc(-c2coc3cc(O[C@@H]4O[C@H](CO[C@@H]5OC[C@@H](O)[C@H](O)[C@H]5O)[C@@H](O)[C@H](O)[C@H]4O)ccc3c2=O)ccc1O | 45.8 | 71.2
COc1ccc(-c2coc3cc(O[C@@H]4O[C@H](CO[C@@H]5OC[C@](O)(CO)[C@H]5O)[C@@H](O)[C@H](O)[C@H]4O)ccc3c2=O)cc1O | 36.6 | 66.3
COc1ccc(-c2coc3cc(O[C@@H]4O[C@H](CO[C@@H]5OC[C@@H](O)[C@H](O)[C@H]5O)[C@@H](O)[C@H](O)[C@H]4O)ccc3c2=O)cc1O | 46.3 | 71.5
COc1ccc(C(=O)C(=O)c2ccc(O[C@@H]3O[C@H](CO[C@@H]4OC[C@@H](O)[C@H](O)[C@H]4O)[C@@H](O)[C@H](O)[C@H]3O)cc2O)cc1O | 27.1 | 61.3
